Measured values from publication PMC10796436, “Peptidyl nitroalkene inhibitors of main protease rationalized by computational and crystallographic investigations as antivirals against SARS-CoV-2” (Communications Chemistry, 2024).
Values joined by “and” are separate entries in the source; they are usually repeats but may differ in a detail not shown here. Identical values can stand only once. Like-named read-outs stand apart in the source and are kept apart here.

Assays:
SARS-CoV-2 M^pro [1] = target: T1, SARS-CoV-2 M^pro (Severe acute respiratory syndrome coronavirus 2, UniProt P0DTD1); test: biochemical; details: M^pro from pMal-M^pro vector
SARS-CoV-2 M^pro [2] = target: T1, SARS-CoV-2 M^pro; test: Mpro FRET inhibition, continuous fluorometric assay (Fluorolog-3), enzyme from pET21-M^pro vector; format: biochemical; details: read-out: Ki (μM)^b
M^pro [3] = target: T2, M^pro (Severe acute respiratory syndrome coronavirus 2, UniProt P0DTD1); test: biochemical; format: binding
[4] = calibration compound; cited from earlier work
M^pro [5] = target: T2, M^pro; format: biochemical; details: for Fluorescence reading (progress curve): triplicate wells
Description: Buffer: 20 mM Tris, 0.1 mM EDTA, 1 mM DTT, 200 mM NaCl pH = 7.5. For the dilution assay Nirmatrelvir[21] was used as a reversible control and LM188[54] as an irreversible control (Fig. 10).
The incubation was done at RT for 30 min in assay buffer. DMSO was used as a control. After incubation the Enzyme/Inhibitor (or DMSO) mixtures were diluted 100-fold in assay buffer.
The preincubation was done in assay buffer (20 mM Tris, 0.1 mM EDTA, 1 mM DTT, 200 mM NaCl, pH = 7.5), at RT for 30 min. After incubation the mixtures were diluted […]
proteolytic activity of the enzyme was measured as described for the enzymatic assays using the […]
activity was measured over 1 h.
Inhibition assay58. Trypsin: Enzyme: bovine trypsin purchased from Sigma-Aldrich (St. Louis, […]
Substrate: Cbz-FR-AMC purchased from Bachem (Bubendorf, Switzerland), [Substrate]: 40 µM […]
The activity against bovine trypsin was tested at 20 µM inhibitor concentration. […]

SARS-CoV-2 = test: microbe, parasite or virus in culture; format: cell-based; details: for EC50: Huh-7-ACE2, 24h p.t., MOI=0.1; for virus titer Mean (%): mean of Exp.1-3; for virus titer (pfu/ml) / virus titer (%) of conc 0: single experiments
[6] = target: human matriptase (MT-SP1) (Homo sapiens, UniProt Q9Y5Y6); test: Matriptase inhibition, fluorometric assay; format: biochemical; details: 20 μM
[7] = target: Zika Virus NS2B/NS3 (bZiPro) (Zika virus, UniProt A0A024B7W1); test: Zika virus protease inhibition, fluorometric assay; format: biochemical; details: 20 μM
rhodesain (RhD) = target: T3, rhodesain (RhD) (Trypanosoma brucei rhodesiense, UniProt Q95PM0); test: Rhodesain inhibition, fluorometric assay; format: biochemical; details: read-out: Ki RhD
T3 construct: made in house

cruzain (CRZ) = cruzain (CRZ) (Trypanosoma cruzi, UniProt P25779); test: Cruzain inhibition, fluorometric assay; format: biochemical; details: read-out: Ki CRZ
cathepsin L (CatL) = target: T4, cathepsin L (CatL) (Homo sapiens, UniProt P07711); test: Cathepsin L inhibition, fluorometric assay; format: biochemical; details: read-out: Ki CatL
T4 construct: purchased Calbiochem (Merck Millipore)

cathepsin B (CatB) = target: T5, cathepsin B (CatB) (Homo sapiens, UniProt P07858); test: Cathepsin B inhibition, fluorometric assay; format: biochemical; details: read-out: Ki CatB
T5 construct: purchased Calbiochem (Merck Millipore)

M^pro [8] = target: T2, M^pro; test: Binding to M^pro by ultracentrifugation (sedimentation method)
in vitro = details: human

Sequence of human matriptase (MT-SP1) (Q9Y5Y6 615-855 limits assumed, other chains not shown): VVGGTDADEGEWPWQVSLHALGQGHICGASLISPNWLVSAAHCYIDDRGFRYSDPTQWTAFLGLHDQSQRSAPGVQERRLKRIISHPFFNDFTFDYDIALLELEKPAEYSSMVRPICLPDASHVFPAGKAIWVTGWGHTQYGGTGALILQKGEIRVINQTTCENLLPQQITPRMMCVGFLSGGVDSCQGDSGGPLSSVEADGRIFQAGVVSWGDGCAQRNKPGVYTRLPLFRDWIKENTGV
Sequence of Zika Virus NS2B/NS3 (bZiPro) (A0A024B7W1 1425-1464): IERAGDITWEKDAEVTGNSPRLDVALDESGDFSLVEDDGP
Sequence of Zika Virus NS2B/NS3 (bZiPro) (A0A024B7W1 1503-1680): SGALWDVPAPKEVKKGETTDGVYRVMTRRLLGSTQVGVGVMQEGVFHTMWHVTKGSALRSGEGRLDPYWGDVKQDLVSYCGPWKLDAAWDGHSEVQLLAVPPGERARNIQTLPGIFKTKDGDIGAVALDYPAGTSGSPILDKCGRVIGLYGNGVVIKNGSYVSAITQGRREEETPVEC
T4 sequence (P07711 114-288 limits assumed): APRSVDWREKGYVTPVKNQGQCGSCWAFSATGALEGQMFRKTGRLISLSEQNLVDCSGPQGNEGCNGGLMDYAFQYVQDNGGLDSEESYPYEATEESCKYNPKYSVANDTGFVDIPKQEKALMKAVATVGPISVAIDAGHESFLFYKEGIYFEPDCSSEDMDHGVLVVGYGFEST
T4 sequence (P07711 292-333 limits assumed): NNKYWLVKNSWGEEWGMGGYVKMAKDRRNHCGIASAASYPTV
T3 sequence (Q95PM0 entry or part of it): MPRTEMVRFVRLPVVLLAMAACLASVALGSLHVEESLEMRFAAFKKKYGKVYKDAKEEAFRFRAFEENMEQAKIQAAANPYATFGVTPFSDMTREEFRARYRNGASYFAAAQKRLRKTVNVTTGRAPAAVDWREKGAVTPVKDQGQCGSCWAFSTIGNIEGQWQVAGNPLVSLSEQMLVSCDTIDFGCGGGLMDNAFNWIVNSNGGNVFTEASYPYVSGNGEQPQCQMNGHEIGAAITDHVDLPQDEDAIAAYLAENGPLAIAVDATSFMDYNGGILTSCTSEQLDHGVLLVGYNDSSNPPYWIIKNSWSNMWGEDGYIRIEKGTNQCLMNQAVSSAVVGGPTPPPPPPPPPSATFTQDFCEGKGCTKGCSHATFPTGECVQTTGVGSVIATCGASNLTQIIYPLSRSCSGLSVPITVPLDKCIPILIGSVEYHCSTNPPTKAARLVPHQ
Sequence of cruzain (CRZ) (P25779 123-467): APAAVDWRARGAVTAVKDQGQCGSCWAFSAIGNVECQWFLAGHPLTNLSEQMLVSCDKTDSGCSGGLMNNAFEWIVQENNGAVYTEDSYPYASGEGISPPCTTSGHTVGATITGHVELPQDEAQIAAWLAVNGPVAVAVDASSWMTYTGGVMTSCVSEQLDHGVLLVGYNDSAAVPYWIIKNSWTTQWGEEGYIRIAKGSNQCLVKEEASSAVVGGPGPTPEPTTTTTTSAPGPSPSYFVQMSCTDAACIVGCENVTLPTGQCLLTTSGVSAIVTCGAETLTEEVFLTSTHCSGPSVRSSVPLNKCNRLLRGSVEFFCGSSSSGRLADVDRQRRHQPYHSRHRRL

## O=C(N[C@@H](Cc1ccccc1)C(=O)N[C@H](/C=C/[N+](=O)[O-])CCc1ccccc1)OCc1ccccc1 [FGA86]
SARS-CoV-2 M^pro [1]
  inhibition at 20 µM: 17%
SARS-CoV-2 M^pro [2]
  Ki: 2.67 ± 0.29 µM
M^pro [3]; 25 µM
  change of Tm of M^pro: 0.9 ± 0.4 °C
M^pro [3]; 25 µM, read-out: DTm (°C)
  ΔTm at 25 µM: 0.9 °C
M^pro [3]; 100 μM
  change of Tm of M^pro: −1.7 ± 0.4 °C

## CC(C)CC(NC(=O)C=Cc1ccccc1)C(=O)NC(C=C[N+](=O)[O-])CCc1ccccc1 (centres unmarked) [FGA177]
SARS-CoV-2 M^pro [1]
  inhibition at 20 µM: 25%
SARS-CoV-2 M^pro [2]
  Ki: 8.59 ± 1.6 µM
M^pro [3]; 25 µM, read-out: DTm (°C)
  ΔTm at 25 µM: 0.1 °C
M^pro [3]; range of 25 to 100 μM
  change of Tm of M^pro: 0.1 ± 0.2 °C

## CCCCC(=O)c1ccccc1 [Valerophenone]
[4]
  Chromatographic Hydrophobicity Index (publication): 97.67

## COc1cccc2[nH]c(C(=O)N[C@@H](CC(C)C)C(=O)N[C@H](/C=C/S(=O)(=O)c3ccccc3)C[C@@H]3CCNC3=O)cc12 [LM188, reference compound]
M^pro [5]; Time 180.071 s
  Fluorescence reading (progress curve): 253 and 247
M^pro [5]; Time 210.081 s
  Fluorescence reading (progress curve): 256 and 250
M^pro [5]; Time 240.095 s
  Fluorescence reading (progress curve): 254 and 247
M^pro [5]; Time 270.113 s
  Fluorescence reading (progress curve): 256 and 248
M^pro [5]; Time 300.118 s
  Fluorescence reading (progress curve): 253 and 248 and 250
M^pro [5]; Time 330.126 s
  Fluorescence reading (progress curve): 256 and 248 and 247
M^pro [5]; Time 360.134 s
  Fluorescence reading (progress curve): 249 and 246 and 248
M^pro [5]; Time 390.141 s
  Fluorescence reading (progress curve): 253 and 250 and 249
M^pro [5]; Time 420.149 s
  Fluorescence reading (progress curve): 251 and 247 and 248
M^pro [5]; Time 450.157 s
  Fluorescence reading (progress curve): 255 and 249 and 250
M^pro [5]; Time 480.18 s
  Fluorescence reading (progress curve): 255 and 244
M^pro [5]; Time 2881.2 s
  Fluorescence reading (progress curve): 249 and 222 and 233
M^pro [5]; Time 2911.21 s
  Fluorescence reading (progress curve): 247 and 222 and 232
M^pro [5]; Time 2941.22 s
  Fluorescence reading (progress curve): 252 and 222 and 230
M^pro [5]; Time 2971.24 s
  Fluorescence reading (progress curve): 250 and 221 and 231
M^pro [5]; Time 3001.25 s
  Fluorescence reading (progress curve): 248 and 221 and 233
M^pro [5]; Time 3031.26 s
  Fluorescence reading (progress curve): 247 and 219 and 231
M^pro [5]; Time 3061.27 s
  Fluorescence reading (progress curve): 249 and 220 and 232
M^pro [5]; Time 3091.28 s
  Fluorescence reading (progress curve): 249 and 219 and 230
M^pro [5]; Time 3121.29 s
  Fluorescence reading (progress curve): 250 and 222 and 232
M^pro [5]; Time 3151.3 s
  Fluorescence reading (progress curve): 246 and 219 and 232
M^pro [5]; Time 3181.31 s
  Fluorescence reading (progress curve): 246 and 220 and 232
M^pro [5]; Time 3211.32 s
  Fluorescence reading (progress curve): 246 and 221 and 231
M^pro [5]; Time 3241.33 s
  Fluorescence reading (progress curve): 243 and 219 and 230
M^pro [5]; Time 3271.34 s
  Fluorescence reading (progress curve): 248 and 221 and 229
M^pro [5]; Time 3301.35 s
  Fluorescence reading (progress curve): 245 and 216 and 230
M^pro [5]; Time 3331.36 s
  Fluorescence reading (progress curve): 246 and 218 and 230
M^pro [5]; Time 3361.37 s
  Fluorescence reading (progress curve): 243 and 219 and 232
M^pro [5]; Time 3391.39 s
  Fluorescence reading (progress curve): 244 and 216 and 230
M^pro [5]; Time 3421.39 s
  Fluorescence reading (progress curve): 241 and 217 and 230
M^pro [5]; Time 3451.41 s
  Fluorescence reading (progress curve): 245 and 215 and 227
M^pro [5]; Time 3481.42 s
  Fluorescence reading (progress curve): 249 and 217 and 230
M^pro [5]; Time 3511.43 s
  Fluorescence reading (progress curve): 242 and 218 and 229
M^pro [5]; Time 3541.44 s
  Fluorescence reading (progress curve): 244 and 216 and 229
M^pro [5]; Time 3571.45 s
  Fluorescence reading (progress curve): 243 and 214 and 228
M^pro [5]; preincubation 30 min
  recovery of M^pro activity after 100-fold dilution: no visible recovery of activity

## Cn1c(=O)c2[nH]cnc2n(C)c1=O [Theophylline]
[4]
  Chromatographic Hydrophobicity Index (publication): 15.76

## c1ccc(-c2nnn[nH]2)cc1 [Phenyltetrazole]
[4]
  Chromatographic Hydrophobicity Index (publication): 20.18

## CC(C)CC(NC(=O)C=Cc1ccccc1)C(=O)NC(C=C[N+](=O)[O-])CC1CCNC1=O (centres unmarked) [FGA145]
SARS-CoV-2 M^pro [1]
  Ki: 3.71 ± 0.38 µM
SARS-CoV-2 M^pro [2]
  Ki: 9.82 ± 1.5 µM
SARS-CoV-2
  EC50: 11.7 µM
SARS-CoV-2; Severe acute respiratory syndrome coronavirus 2, 24 h
  EC50: 11.7 µM
SARS-CoV-2; conc 0.1
  virus titer Mean (%): 99%
  virus titer (pfu/ml): 1400000 pfu/ml and 1000000 pfu/ml and 1070000 pfu/ml
SARS-CoV-2; conc 0.5
  virus titer Mean (%): 119%
  virus titer (%) of conc 0: 160% and 90% and 107%
  virus titer (pfu/ml): 1600000 pfu/ml and 1800000 pfu/ml and 1070000 pfu/ml
SARS-CoV-2; conc 1
  virus titer Mean (%): 120%
  virus titer (pfu/ml): 1400000 pfu/ml and 1500000 pfu/ml
SARS-CoV-2; conc 5
  virus titer Mean (%): 108.333%
  virus titer (%) of conc 0: 120% and 75% and 130%
  virus titer (pfu/ml): 1200000 pfu/ml and 1500000 pfu/ml and 1300000 pfu/ml
SARS-CoV-2; conc 10
  virus titer Mean (%): 25.6667%
  virus titer (pfu/ml): 400000 pfu/ml and 200000 pfu/ml and 270000 pfu/ml
SARS-CoV-2; conc 50
  virus titer Mean (%): 0.07467%
  virus titer (%) of conc 0: 0.2% and 0.01% and 0.014%
SARS-CoV-2; conc 100
  virus titer Mean (%): 0.017%
  virus titer (%) of conc 0: 0.006% and 0.02% and 0.025%
[6]
  MT-SP1: n.i. (no inhibition (<10%) was observed at a concentration of 20 μM)
[7]
  bZiPro: n.i. (no inhibition (<10%) was observed at a concentration of 20 μM)
Rhodesain (RhD)
  Ki: 0.00163 ± 0.00022 µM
Cruzain (CRZ)
  Ki: 0.0126 ± 0.0015 µM
Cathepsin L (CatL)
  Ki: 0.053 ± 0.0041 µM
Cathepsin B (CatB)
  Ki: 0.206 ± 0.041 µM
M^pro [3]; 25 µM
  change of Tm of M^pro: −1.1 ± 0.2 °C
M^pro [3]; 25 µM, read-out: DTm (°C)
  ΔTm at 25 µM: -1.1 °C
M^pro [3]; 100 μM
  change of Tm of M^pro: −3.7 ± 0.1 °C
M^pro [8]; ligand concentration 0.5
  Fraction bound, Absorption: 0.01689
M^pro [8]; ligand concentration 1
  Fraction bound, Absorption: 0.05068
M^pro [8]; ligand concentration 5
  Fraction bound, Absorption: 0.2419
M^pro [8]; ligand concentration 10
  Fraction bound, Absorption: 0.373
M^pro [8]; ligand concentration 25
  Fraction bound, Absorption: 0.7297
M^pro [8]; ligand concentration 50
  Fraction bound, Absorption: 0.9595
M^pro [8]; ligand concentration 100
  Fraction bound, Absorption: 1.009
M^pro [8]; ultracentrifugation, 25 °C
  Kd: 11.8 ± 1.05 µM
In vitro
  CC50: > 100 µM

## c1ccc2[nH]cnc2c1 [Benzimidazole]
[4]
  Chromatographic Hydrophobicity Index (publication): 30.71

## CC(C)C[C@H](NC(=O)[C@@H](NC(=O)[C@H](C)NC(=O)OC(C)(C)C)C(C)C)C(=O)N[C@H](/C=C/[N+](=O)[O-])CCc1ccccc1 [FGA159]
SARS-CoV-2 M^pro [1]
  Ki: 21.8 ± 1.5 µM
SARS-CoV-2 M^pro [2]
  Ki: 1.19 ± 0.18 µM
M^pro [3]; 5 µM, read-out: DTm (°C)
  ΔTm at 5 µM: 2.6 °C
M^pro [3]; 25 µM, read-out: DTm (°C)
  ΔTm at 25 µM: 2.5 °C
M^pro [3]; concentration range between 5 and 100 μM
  change of Tm of M^pro: 2.5 ± 0.2 °C

## CCCC(=O)c1ccccc1 [Butyrophenone]
[4]
  Chromatographic Hydrophobicity Index (publication): 88.49

## CC(=O)c1ccccc1 [Acetophenone]
[4]
  Chromatographic Hydrophobicity Index (publication): 64.90

## CCC(=O)c1ccccc1 [Propiophenone]
[4]
  Chromatographic Hydrophobicity Index (publication): 78.41
